Data: US12188947B2, “Marker for diagnosing atherosclerosis severity, and diagnostic method using same” (EWHA UNIVERSITY—INDUSTRY COLLABORATION FOUNDATION, priority 2018, dated 2025)
Where no end group is shown, it is not given here.

Test: Metabolic phenotype (body weight, metabolic organ weights) after LGI3 antagonist peptide injection
Type: in vivo, mouse
Procedure: LGI3 P34, made with a mouse LGI3 antagonist peptide, is a 15mer synthetic peptide containing amino acids (aa) […] (DEGRQKFVRFQELAV (SEQ ID NO:3)) of mouse Lgi3. The synthetic LGI3 peptide was dissolved in PBS and sterilized by filtration. PBS injection was used as a control for mouse experiments. All peptides were synthesized by Peptron (Seoul, Korea). Apoe^−/− mice fed a high fat diet for 16 weeks were intraperitoneally injected with PBS or the LGI3 antagonist peptide twice a week for the last 5 weeks.
Statistical analysis was performed using InStat. A two-sided Mann-Whitney U-test was used for comparison between two groups, and one-way ANOVA was used for comparisons among three or more groups. All data is presented as mean s.e.m, and P-values of ≤0.05 were considered statistically significant.

## DEGRQKFVRFQELAV [LGI3 P34, DEGRQKFVRFQELAV]
Apoe −/− mice, high fat diet 16 weeks, intraperitoneal injection for the last 5 weeks, n=9, PBS control 1.689±0.43, P=0.84
  epididymal fat weight: 1.58±0.51%
Apoe −/− mice, high fat diet 16 weeks, intraperitoneal injection for the last 5 weeks, n=9, PBS control 39.22±3.51, P=0.536
  body weight: 38.08 ± 2.19 g
Body weight, WAT, spleen and liver weight to body weight versus control mice, FIG. 6
  metabolic phenotype (in words): not changed
